Measurements published in EP4603105A1, “PHARMACEUTICAL COMPOSITION CONTAINING CYCLIC COMPOUND HAVING SELECTIVE KRAS INHIBITORY EFFECT AGAINST HRAS AND NRAS” (CHUGAI SEIYAKU KABUSHIKI KAISHA, priority 2022, dated 2024).
pIC50, pKd: −log10 of the molar value.

Legend:
[1] = target: HRAS wild-type protein (Homo sapiens, UniProt P01112); assay: Binding to HRAS by surface plasmon resonance (SPR), KD and KD ratio to KRAS; conditions: ratio of the KD value with respect to HRAS wild-type protein to the KD value with respect to KRAS
In short: (§1)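 Biotinylated GDP-bound RAS was captured at about 100–300 RU. Running buffer: HBS pH 7.4, 10 mM MgCl2, 10 µM GDP, 1 mM DTT, 0.01% Tween 20, 4% DMSO.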

[2] = target: GDP-bound NRAS wild-type protein (Homo sapiens, UniProt P01111); assay: Binding to NRAS by surface plasmon resonance (SPR), KD and KD ratio to KRAS; conditions: ratio of the KD value with respect to GDP-bound NRAS wild-type protein to the KD value with respect to KRAS
In short: as §1

[3] = test system: human lung cancer strain NCI-H441; type: cell-based
In short: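 Step one: dispense the test compound in serial DMSO dilutions. Step three: add the reagent and measure […].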

[4] = target: GDP-bound KRAS wild-type protein (Homo sapiens, UniProt P01116); assay: Binding to KRAS by surface plasmon resonance (SPR), dissociation constant KD; conditions: Single Cycle Kinetics, 1:1 binding model
In short: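 GDP-bound biotin-Avi RAS captured at ~100–300 RU, 30°C, pH 7.4 HBS containing 10 µM GDP, 10 mM MgCl2, 1 mM DTT, 0.01% Tween 20 and 4% DMSO. KD by 1:1 fitting.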

Chain of GDP-bound KRAS wild-type protein (P01116 1-188 isoform P01116-2): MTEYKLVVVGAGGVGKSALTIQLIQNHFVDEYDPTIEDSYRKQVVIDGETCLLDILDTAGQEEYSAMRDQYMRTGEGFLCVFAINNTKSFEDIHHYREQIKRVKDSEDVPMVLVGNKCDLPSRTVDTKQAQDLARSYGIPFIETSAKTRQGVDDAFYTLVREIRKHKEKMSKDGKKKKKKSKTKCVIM
Chain of GDP-bound NRAS wild-type protein (P01111 whole entry): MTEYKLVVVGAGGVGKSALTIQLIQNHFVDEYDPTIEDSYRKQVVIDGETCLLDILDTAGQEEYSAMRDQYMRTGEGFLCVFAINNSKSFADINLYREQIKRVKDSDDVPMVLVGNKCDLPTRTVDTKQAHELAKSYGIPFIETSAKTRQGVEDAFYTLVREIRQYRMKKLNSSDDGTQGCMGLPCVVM
Chain of HRAS wild-type protein (P01112 whole entry): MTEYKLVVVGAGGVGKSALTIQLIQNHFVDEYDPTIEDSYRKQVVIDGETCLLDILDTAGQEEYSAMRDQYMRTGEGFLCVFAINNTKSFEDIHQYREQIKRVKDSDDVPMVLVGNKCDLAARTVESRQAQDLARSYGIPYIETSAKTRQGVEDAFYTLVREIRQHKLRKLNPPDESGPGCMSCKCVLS

SMILES | HRAS /KRAS [1] | NRAS /KRAS [2] | pIC50 [3] | pKd [4]
CCCOC[C@H]1C(=O)N[C@@H]([C@@H](C)CC)C(=O)N(C)CC(=O)N(C)[C@H]2C/C=C\CCN(C2=O)[C@@H](Cc2ccc(C)cc2)C(=O)N(C)CC(=O)N[C@@H](CCc2ccc(C(F)(F)F)c(Cl)c2)C(=O)N2C[C@H](CC)C[C@H]2C(=O)NC2(CC(C)(C)C2)C(=O)N(C)[C@@H](C2CCCC2)C(=O)N(C)[C@H](C(=O)N(C)C)CC(=O)N1C [PP2235] | A (a compound having 10 or more and less than 20 is denoted as A) | A (a compound having 10 or more and less than 20 is denoted as A) | 7.66 | 9.55
CCC[C@H]1C(=O)N[C@@H]([C@@H](C)CC)C(=O)N(C)CC(=O)N(C)[C@H]2C/C=C\CCN(C2=O)[C@@H](Cc2ccc(C)cc2)C(=O)N(C)CC(=O)N[C@@H](CCc2ccc(C(F)(F)F)c(Cl)c2)C(=O)N2C[C@H](CC)C[C@H]2C(=O)NC2(CCC2)C(=O)N(C)[C@@H](C2CCCC2)C(=O)N(C)[C@H](C(=O)N(C)C)CC(=O)N1C [PP2237] | A (a compound having 10 or more and less than 20 is denoted as A) | A (a compound having 10 or more and less than 20 is denoted as A) | 7.19 | 9.85
CCC[C@H]1C(=O)N[C@@H](C2CCC2)C(=O)N(C)CC(=O)N(C)[C@H]2C/C=C\CCN(C2=O)[C@@H](Cc2ccc(C)cc2)C(=O)N(C)CC(=O)N[C@@H](CCc2ccc(C(F)(F)F)c(F)c2)C(=O)N2C[C@H](OCC)C[C@H]2C(=O)NC2(CC(C)(C)C2)C(=O)N(C)[C@@H](C2CCC2)C(=O)N(C)[C@H](C(=O)N(C)C)CC(=O)N1C [PP2242] | A (a compound having 10 or more and less than 20 is denoted as A) | A (a compound having 10 or more and less than 20 is denoted as A) | 6.75 | 8.74
CCO[C@@H]1C[C@H]2C(=O)NC3(CCC3)C(=O)N(C)[C@@H](C3CCCC3)C(=O)N(C)[C@H](C(=O)N(C)CC)CC(=O)N(C)[C@H]3CCCCCCc4ccc(cc4)C[C@@H](C(=O)N(C)CC(=O)N[C@@H](CCc4ccc(C(F)(F)F)c(OC)c4)C(=O)N2C1)N1CC/C=C\C[C@@H](C1=O)N(C)C(=O)CN(C)C(=O)[C@H]([C@@H](C)CC)NC3=O [PP2263] | A (a compound having 10 or more and less than 20 is denoted as A) | A (a compound having 10 or more and less than 20 is denoted as A) | 7.71 | 9.01
CCOC[C@H]1C(=O)N[C@@H]([C@@H](C)CC)C(=O)N(C2CC2)CC(=O)N(C)[C@H]2C/C=C\CCN(C2=O)[C@@H](Cc2ccc(C(F)(F)F)cc2)C(=O)N(C)CC(=O)N[C@@H](CCc2ccc(C(F)(F)F)c(OC)c2)C(=O)N2C[C@H](OCC)C[C@H]2C(=O)N(C)C2(CCC2)C(=O)N(C)[C@@H](C(CC)CC)C(=O)N(C)[C@H](C(=O)N(C)C)CC(=O)N1C [PP2315] | A (a compound having 10 or more and less than 20 is denoted as A) | A (a compound having 10 or more and less than 20 is denoted as A) | 8.05 | 9.48
CCCOC[C@H]1C(=O)N[C@@H]([C@@H](C)CC)C(=O)N(C2CC2)CC(=O)N(C)[C@H]2C/C=C\CCN(C2=O)[C@@H](Cc2ccc(C(F)(F)F)cc2)C(=O)N(C)CC(=O)N[C@@H](CCc2ccc(C(F)(F)F)c(OC)c2)C(=O)N2C[C@H](OCC)C[C@H]2C(=O)N(C)C2(CCC2)C(=O)N(C)[C@@H](C2CCCC2)C(=O)N(C)[C@H](C(=O)N(C)C)CC(=O)N1C [PP2318] | A (a compound having 10 or more and less than 20 is denoted as A) | A (a compound having 10 or more and less than 20 is denoted as A) | 8.48 | 9.92
CCCOC[C@H]1C(=O)N[C@@H]([C@@H](C)CC)C(=O)N(C)CC(=O)N(C)[C@H]2C/C=C\CCN(C2=O)[C@@H](Cc2ccc(C)cc2)C(=O)N(C)CC(=O)N[C@@H](CCc2ccc(C(F)(F)F)c(OC)c2)C(=O)N2C[C@H](OCC)C[C@H]2C(=O)N(C)C2(CCC2)C(=O)N(C)[C@@H](C(CC)CC)C(=O)N(C)[C@H](C(=O)N(C)C)CC(=O)N1C [PP2323] | A (a compound having 10 or more and less than 20 is denoted as A) | A (a compound having 10 or more and less than 20 is denoted as A) | 8.43 | 9.85
CCC[C@H]1C(=O)N[C@@H]([C@@H](C)CC)C(=O)N(C2CC2)CC(=O)N(C)[C@H]2C/C=C\CCN(C2=O)[C@@H](Cc2ccc(C)cc2)C(=O)N(C)CC(=O)N[C@@H](CCc2ccc(C(F)(F)F)c(OC)c2)C(=O)N2C[C@H](OCC)C[C@H]2C(=O)N(C)C2(CCC2)C(=O)N(C)[C@@H](C(CC)CC)C(=O)N(C)[C@H](C(=O)N(C)C)CC(=O)N1C [PP2325] | A (a compound having 10 or more and less than 20 is denoted as A) | A (a compound having 10 or more and less than 20 is denoted as A) | 8.09 | 9.40
CCCOC[C@H]1C(=O)N[C@@H]([C@@H](C)CC)C(=O)N(C)CC(=O)N(C)[C@H]2C/C=C\CCN(C2=O)[C@@H](Cc2ccc(C)cc2)C(=O)N(C)CC(=O)N[C@@H](CCc2ccc(C(F)(F)F)c(OC)c2)C(=O)N2C[C@H](OCC)C[C@H]2C(=O)N(C)C2(CCC2)C(=O)N(C)[C@@H](C2CCCC2)C(=O)N(C)[C@H](C(=O)N(C)C)CC(=O)N1C [PP2326] | B (a compound having 3 or more and less than 10 is denoted as B) | A (a compound having 10 or more and less than 20 is denoted as A) | 8.80 | 10.51
CCC[C@H]1C(=O)N[C@@H]([C@@H](C)CC)C(=O)N(C)CC(=O)N(C)[C@H]2C/C=C\CCN(C2=O)[C@@H](CC2CCCCC2)C(=O)N(C)CC(=O)N[C@@H](CCc2ccc(C(F)(F)F)c(OC)c2)C(=O)N2C[C@H](OCC)C[C@H]2C(=O)N(C)C2(CCC2)C(=O)N(C)[C@@H](C(CC)CC)C(=O)N(C)[C@H](C(=O)N(C)C)CC(=O)N1C [PP2333] | A (a compound having 10 or more and less than 20 is denoted as A) | A (a compound having 10 or more and less than 20 is denoted as A) | 7.35 | 8.72
CCC[C@H]1C(=O)N[C@@H]([C@@H](C)CC)C(=O)N(C2CC2)CC(=O)N(C)[C@H]2C/C=C\CCN(C2=O)[C@@H](CC2CCCCC2)C(=O)N(C)CC(=O)N[C@@H](CCc2ccc(C(F)(F)F)c(OC)c2)C(=O)N2C[C@H](OCC)C[C@H]2C(=O)N(C)C2(CCC2)C(=O)N(C)[C@@H](C(CC)CC)C(=O)N(C)[C@H](C(=O)N(C)C)CC(=O)N1C [PP2337] | A (a compound having 10 or more and less than 20 is denoted as A) | A (a compound having 10 or more and less than 20 is denoted as A) | 7.47 | 7.49
CCC[C@H]1C(=O)N[C@@H]([C@@H](C)CC)C(=O)N(C2CC2)CC(=O)N(C)[C@H]2C/C=C\CCN(C2=O)[C@@H](CC2CCCCC2)C(=O)N(C)CC(=O)N[C@@H](CCc2ccc(C(F)(F)F)c(OC)c2)C(=O)N2C[C@H](OCC)C[C@H]2C(=O)N(C)C2(CCC2)C(=O)N(C)[C@@H](C2CCCC2)C(=O)N(C)[C@H](C(=O)N(C)C)CC(=O)N1C [PP2340] | B (a compound having 3 or more and less than 10 is denoted as B) | B (a compound having 3 or more and less than 10 is denoted as B) | 7.35 | 8.96
CCOC[C@H]1C(=O)N[C@@H]([C@@H](C)CC)C(=O)N(C2CC2)CC(=O)N(C)[C@H]2C/C=C\CCN(C2=O)[C@@H](CC2CCCCC2)C(=O)N(C)CC(=O)N[C@@H](CCc2ccc(C(F)(F)F)c(OC)c2)C(=O)N2C[C@H](OCC)C[C@H]2C(=O)N(C)C2(CCC2)C(=O)N(C)[C@@H](C2CCCC2)C(=O)N(C)[C@H](C(=O)N(C)C)CC(=O)N1C [PP2342] | A (a compound having 10 or more and less than 20 is denoted as A) | A (a compound having 10 or more and less than 20 is denoted as A) | 7.15 | 9.26
CCOC[C@H]1C(=O)N[C@@H]([C@@H](C)CC)C(=O)N(C2CC2)CC(=O)N(C)[C@H]2C/C=C\CCN(C2=O)[C@@H](CC2CCC(F)(F)CC2)C(=O)N(C)CC(=O)N[C@@H](CCc2ccc(C(F)(F)F)c(OC)c2)C(=O)N2C[C@H](OCC)C[C@H]2C(=O)N(C)C2(CCC2)C(=O)N(C)[C@@H](C(CC)CC)C(=O)N(C)[C@H](C(=O)N(C)C)CC(=O)N1C [PP2351] | A (a compound having 10 or more and less than 20 is denoted as A) | A (a compound having 10 or more and less than 20 is denoted as A) | 6.75 | 8.49
